Data from patent US8063208B2, “Crystalline forms of (3R,4R)-4-amino-1-[[4-[(3-methoxyphenyl)amino]pyrrolo[2,1-f][1,2,4]triazin-5-yl]methyl]piperidin-3-ol” (Bristol-Myers Squibb Company, priority 2006, dated 2011).
Values belong to the molecule of their own block, whether it stands above or below them.

Key:
[1] = Relative thermodynamic stability of crystalline forms; assay type: physicochemical; settings: temperatures from room temperature to 50° C.
[2] = Slurry conversion of mixtures of forms; assay type: physicochemical; settings: slurried mixtures of N-1 and N-2 convert to Form N-2
[3] = Form conversion on heating (melt/recrystallization); assay type: physicochemical; settings: melts at about 137° C.
Method: Differential scanning calorimetry (DSC) experiments were performed in a TA Instruments™ model Q1000 or 2920. The sample (about 2-6 mg) was weighed in an aluminum pan and recorded accurately recorded to a hundredth of a milligram, and transferred to the DSC. The instrument was purged with nitrogen gas at 50 mL/min. Data were collected between room temperature and 300° C. at 10° C./min heating rate. The plot was made with the endothermic peaks pointing down.

[4] = biological target: HER4 (Homo sapiens, UniProt Q15303); assay: HER4 tyrosine kinase inhibition; assay type: biochemical
HER4, sequence (Q15303 26-1308): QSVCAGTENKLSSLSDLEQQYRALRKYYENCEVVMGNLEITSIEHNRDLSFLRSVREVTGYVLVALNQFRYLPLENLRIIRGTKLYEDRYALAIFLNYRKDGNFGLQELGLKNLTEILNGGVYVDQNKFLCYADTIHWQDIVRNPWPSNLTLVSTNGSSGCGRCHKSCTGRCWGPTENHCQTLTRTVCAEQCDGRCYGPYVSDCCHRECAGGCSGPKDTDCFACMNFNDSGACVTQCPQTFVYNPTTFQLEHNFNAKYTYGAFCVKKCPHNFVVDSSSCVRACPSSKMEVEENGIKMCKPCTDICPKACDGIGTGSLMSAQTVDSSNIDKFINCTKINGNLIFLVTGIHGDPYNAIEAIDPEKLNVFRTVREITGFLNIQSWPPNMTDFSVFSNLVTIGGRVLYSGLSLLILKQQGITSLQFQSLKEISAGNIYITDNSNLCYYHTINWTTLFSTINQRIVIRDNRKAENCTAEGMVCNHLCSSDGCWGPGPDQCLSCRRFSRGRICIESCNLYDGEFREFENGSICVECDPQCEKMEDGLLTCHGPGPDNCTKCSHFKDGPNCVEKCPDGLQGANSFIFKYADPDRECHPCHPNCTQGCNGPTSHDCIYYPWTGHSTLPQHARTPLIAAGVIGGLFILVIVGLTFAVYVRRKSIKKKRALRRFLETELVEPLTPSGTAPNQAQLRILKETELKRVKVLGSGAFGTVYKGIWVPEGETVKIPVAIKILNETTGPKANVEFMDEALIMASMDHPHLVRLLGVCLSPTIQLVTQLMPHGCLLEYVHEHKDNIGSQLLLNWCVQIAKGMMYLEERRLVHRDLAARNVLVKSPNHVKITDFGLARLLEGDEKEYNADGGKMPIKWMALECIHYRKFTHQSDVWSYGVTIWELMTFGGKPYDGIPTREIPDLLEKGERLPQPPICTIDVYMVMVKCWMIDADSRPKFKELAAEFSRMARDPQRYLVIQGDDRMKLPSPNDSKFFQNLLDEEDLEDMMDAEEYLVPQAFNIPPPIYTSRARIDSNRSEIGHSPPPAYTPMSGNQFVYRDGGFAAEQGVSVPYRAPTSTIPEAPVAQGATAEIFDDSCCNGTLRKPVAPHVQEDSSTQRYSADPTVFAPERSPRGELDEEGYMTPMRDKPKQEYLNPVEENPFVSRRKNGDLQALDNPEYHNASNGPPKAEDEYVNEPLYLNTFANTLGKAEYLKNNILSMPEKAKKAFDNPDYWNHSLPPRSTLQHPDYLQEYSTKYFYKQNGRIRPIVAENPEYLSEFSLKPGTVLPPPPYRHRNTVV

[5] = tested on: various tumor cell lines; assay: Antiproliferative activity in tumor cell lines; assay type: cell-based
[6] = biological target: HER1 (Homo sapiens, UniProt P00533); assay: HER1 tyrosine kinase inhibition; assay type: biochemical
HER1, sequence (P00533 25-1210): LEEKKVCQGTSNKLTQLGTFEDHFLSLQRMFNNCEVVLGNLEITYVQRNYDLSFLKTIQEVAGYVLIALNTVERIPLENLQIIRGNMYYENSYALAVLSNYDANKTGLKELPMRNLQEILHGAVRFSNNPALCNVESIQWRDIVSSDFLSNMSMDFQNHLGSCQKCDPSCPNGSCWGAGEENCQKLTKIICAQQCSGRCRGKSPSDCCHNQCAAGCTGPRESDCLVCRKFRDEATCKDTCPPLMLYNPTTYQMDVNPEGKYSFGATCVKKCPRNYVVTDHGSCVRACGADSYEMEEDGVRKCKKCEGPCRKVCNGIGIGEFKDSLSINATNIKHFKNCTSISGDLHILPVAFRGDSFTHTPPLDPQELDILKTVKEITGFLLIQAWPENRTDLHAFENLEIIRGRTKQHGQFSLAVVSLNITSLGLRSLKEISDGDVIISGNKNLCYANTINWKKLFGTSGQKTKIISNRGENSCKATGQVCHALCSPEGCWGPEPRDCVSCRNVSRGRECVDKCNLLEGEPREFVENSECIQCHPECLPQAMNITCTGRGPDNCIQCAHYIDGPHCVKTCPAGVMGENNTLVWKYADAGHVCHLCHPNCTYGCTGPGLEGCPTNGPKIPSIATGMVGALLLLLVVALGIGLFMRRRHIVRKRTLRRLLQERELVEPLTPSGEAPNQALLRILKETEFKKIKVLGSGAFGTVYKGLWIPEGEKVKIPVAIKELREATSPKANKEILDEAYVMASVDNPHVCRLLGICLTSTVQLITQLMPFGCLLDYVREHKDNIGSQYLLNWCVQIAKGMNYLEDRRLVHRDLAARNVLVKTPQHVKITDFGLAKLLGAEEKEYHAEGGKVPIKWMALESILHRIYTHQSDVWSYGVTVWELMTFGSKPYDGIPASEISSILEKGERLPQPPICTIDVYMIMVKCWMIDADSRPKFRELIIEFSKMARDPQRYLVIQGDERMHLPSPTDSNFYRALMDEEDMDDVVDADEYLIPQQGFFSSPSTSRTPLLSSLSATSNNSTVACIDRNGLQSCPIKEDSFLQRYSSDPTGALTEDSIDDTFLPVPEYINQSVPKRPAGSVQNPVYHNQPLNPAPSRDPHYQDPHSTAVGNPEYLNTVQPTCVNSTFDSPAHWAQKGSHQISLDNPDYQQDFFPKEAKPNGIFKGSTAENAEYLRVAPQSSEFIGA

[7] = biological target: HER2 (Homo sapiens, UniProt P04626); assay: HER2 tyrosine kinase inhibition; assay type: biochemical
HER2, sequence (P04626 23-1255): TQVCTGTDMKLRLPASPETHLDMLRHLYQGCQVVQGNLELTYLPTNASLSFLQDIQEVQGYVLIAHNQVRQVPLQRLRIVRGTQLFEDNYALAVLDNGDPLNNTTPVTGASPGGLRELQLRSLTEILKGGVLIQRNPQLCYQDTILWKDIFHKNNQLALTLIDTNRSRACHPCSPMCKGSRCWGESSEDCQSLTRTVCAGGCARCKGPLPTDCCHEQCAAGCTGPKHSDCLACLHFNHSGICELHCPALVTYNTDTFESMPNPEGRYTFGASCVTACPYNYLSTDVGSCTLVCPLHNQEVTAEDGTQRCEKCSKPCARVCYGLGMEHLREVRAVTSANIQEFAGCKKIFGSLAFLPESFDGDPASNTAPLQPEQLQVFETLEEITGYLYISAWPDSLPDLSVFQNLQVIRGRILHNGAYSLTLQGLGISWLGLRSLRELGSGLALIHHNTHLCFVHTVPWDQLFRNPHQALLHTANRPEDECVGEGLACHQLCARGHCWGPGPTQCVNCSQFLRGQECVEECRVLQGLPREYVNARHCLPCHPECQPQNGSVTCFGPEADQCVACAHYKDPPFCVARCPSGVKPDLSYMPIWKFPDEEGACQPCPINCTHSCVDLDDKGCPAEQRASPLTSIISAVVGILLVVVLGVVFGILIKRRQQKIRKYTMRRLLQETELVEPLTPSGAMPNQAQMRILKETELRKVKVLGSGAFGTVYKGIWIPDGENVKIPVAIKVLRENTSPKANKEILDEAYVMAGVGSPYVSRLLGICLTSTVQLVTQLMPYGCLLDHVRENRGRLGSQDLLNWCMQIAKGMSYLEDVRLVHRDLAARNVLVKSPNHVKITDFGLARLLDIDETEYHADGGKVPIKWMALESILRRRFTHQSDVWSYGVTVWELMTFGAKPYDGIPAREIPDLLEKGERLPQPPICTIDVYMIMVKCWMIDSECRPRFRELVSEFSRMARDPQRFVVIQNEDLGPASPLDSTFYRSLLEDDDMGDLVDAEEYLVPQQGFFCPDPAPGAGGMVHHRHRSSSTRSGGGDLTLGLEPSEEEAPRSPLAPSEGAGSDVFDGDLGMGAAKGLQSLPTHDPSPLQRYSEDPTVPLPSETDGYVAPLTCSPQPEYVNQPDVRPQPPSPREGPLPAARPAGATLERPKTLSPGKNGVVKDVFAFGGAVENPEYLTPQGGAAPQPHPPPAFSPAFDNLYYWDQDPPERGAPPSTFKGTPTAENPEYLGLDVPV

[8] = biological target: VEGFR2 (Homo sapiens, UniProt P35968); assay: VEGFR2 inhibition; assay type: biochemical
VEGFR2, sequence (P35968 20-1356, species assumed): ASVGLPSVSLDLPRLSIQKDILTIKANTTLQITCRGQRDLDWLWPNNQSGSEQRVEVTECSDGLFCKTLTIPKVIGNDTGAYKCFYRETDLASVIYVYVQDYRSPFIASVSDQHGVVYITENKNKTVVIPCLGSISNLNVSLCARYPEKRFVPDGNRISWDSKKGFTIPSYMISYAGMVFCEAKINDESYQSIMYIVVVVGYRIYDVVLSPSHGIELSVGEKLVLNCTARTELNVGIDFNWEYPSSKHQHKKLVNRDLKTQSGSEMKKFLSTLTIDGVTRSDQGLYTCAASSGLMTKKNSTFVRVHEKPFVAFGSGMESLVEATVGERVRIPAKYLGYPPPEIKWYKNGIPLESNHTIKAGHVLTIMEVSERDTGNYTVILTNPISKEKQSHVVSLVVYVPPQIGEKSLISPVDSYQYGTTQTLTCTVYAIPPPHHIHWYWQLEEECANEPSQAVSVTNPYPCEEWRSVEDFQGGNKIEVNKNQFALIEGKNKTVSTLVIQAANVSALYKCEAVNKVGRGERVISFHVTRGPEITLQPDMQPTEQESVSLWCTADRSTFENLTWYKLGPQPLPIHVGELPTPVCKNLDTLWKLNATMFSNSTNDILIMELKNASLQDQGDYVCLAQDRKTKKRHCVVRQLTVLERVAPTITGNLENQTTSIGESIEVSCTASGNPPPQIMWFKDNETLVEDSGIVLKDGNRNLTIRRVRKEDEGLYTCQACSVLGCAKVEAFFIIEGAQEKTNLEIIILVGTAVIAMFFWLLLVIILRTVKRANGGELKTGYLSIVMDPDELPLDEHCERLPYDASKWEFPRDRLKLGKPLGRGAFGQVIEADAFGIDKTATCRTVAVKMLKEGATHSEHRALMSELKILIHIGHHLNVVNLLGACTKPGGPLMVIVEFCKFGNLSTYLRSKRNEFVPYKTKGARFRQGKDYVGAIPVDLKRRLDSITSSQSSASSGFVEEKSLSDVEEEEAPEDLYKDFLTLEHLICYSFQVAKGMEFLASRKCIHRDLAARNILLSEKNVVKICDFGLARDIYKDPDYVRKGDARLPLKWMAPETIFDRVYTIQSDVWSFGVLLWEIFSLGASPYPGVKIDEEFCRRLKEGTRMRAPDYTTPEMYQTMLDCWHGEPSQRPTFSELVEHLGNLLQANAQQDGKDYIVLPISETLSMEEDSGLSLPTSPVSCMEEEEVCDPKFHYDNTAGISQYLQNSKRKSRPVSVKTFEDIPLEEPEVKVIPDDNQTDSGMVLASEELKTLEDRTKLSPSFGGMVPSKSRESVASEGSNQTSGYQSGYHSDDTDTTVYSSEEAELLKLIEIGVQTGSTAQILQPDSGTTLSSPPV

[9] = tested on: HER2 and HER1 driven tumor xenograft models; assay: Anti-tumor efficacy in tumor xenograft models; assay type: in vivo

- stability relationship from slurried mixtures of N-1 and N-2 [2]: monotropically more stable
Structure (SMILES): COc1cccc(Nc2ncnn3ccc(CN4CC[C@@H](N)[C@H](O)C4)c23)c1 [Form N-2, (3R,4R)-4-amino-1-[[4-[(3-methoxyphenyl)amino]pyrrolo[2,1-f][1,2,4]triazin-5-yl]methyl]piperidin-3-ol]
- thermodynamic stability relative to other form [1]: more thermodynamically stable than Form N-1

- solid form conversion after melting [3]: recrystallizes as Form N-2
Structure (SMILES): COc1cccc(Nc2ncnn3ccc(CN4CC[C@@H](N)[C@H](O)C4)c23)c1 [Form N-1, (3R,4R)-4-amino-1-[[4-[(3-methoxyphenyl)amino]pyrrolo[2,1-f][1,2,4]triazin-5-yl]methyl]piperidin-3-ol]

- inhibition of HER4 [4]: potent inhibitor
- inhibition of HER1 [6]: potent inhibitor
- inhibition of HER2 [7]: potent inhibitor
- inhibition of VEGFR2 [8]: potent inhibitor
Structure (SMILES): COc1cccc(Nc2ncnn3ccc(CN4CC[C@@H](N)[C@H](O)C4)c23)c1 [Compound I, (3R,4R)-4-amino-1-[[4-[(3-methoxyphenyl)amino]pyrrolo[2,1-f][1,2,4]triazin-5-yl]methyl]piperidin-3-ol]
- antiproliferative activity [5]: broad antiproliferative activity
- anti-tumor efficacy [9]: excellent anti-tumor efficacy
